Several values for one entry are separate records, joined by “and”; a condition that tells them apart may be missing. Equal entries are not always repeated. Where two headings read alike, the source gives them in different places.
Experiments:
[1] = system: OATP1B-type transporters; settings: cited from earlier work
[2] = system: mice; settings: cited from earlier work
[3] = system: mice; settings: for Protection against treatment-related mechanical allodynia by OATP1B2 deficiency: mouse, in vivo
[4] = molecular target: T1, mOATP1B2 (Mus musculus, UniProt Q9JJL3); assay: Inhibition of vincristine uptake in HEK293 cells overexpressing mOATP1B2; assay type: cell-based
T1 sequence (Q9JJL3 1-689): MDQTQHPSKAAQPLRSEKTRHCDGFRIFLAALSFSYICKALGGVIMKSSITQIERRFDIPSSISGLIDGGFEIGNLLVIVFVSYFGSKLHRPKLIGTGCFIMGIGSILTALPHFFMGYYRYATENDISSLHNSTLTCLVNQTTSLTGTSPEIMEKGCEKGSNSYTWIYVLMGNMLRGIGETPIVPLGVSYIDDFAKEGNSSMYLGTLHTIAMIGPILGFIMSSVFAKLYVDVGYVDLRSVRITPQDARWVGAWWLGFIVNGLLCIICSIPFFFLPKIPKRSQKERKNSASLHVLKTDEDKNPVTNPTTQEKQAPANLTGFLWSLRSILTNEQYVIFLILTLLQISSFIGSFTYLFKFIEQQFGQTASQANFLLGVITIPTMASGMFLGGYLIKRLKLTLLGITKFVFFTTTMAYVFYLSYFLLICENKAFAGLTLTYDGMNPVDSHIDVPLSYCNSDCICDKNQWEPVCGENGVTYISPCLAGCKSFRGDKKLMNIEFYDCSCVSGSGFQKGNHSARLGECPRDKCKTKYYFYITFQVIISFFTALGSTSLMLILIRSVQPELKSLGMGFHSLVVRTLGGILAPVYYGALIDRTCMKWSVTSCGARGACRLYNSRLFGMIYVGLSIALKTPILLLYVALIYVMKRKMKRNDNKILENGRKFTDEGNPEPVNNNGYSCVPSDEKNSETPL

[5] = molecular target: T2, hOATP1B1 (Homo sapiens, UniProt Q9Y6L6); assay: Inhibition of vincristine uptake in HEK293 cells overexpressing hOATP1B1; settings: inhibitor 15 min pre-treatment
T2 sequence (Q9Y6L6 1-691): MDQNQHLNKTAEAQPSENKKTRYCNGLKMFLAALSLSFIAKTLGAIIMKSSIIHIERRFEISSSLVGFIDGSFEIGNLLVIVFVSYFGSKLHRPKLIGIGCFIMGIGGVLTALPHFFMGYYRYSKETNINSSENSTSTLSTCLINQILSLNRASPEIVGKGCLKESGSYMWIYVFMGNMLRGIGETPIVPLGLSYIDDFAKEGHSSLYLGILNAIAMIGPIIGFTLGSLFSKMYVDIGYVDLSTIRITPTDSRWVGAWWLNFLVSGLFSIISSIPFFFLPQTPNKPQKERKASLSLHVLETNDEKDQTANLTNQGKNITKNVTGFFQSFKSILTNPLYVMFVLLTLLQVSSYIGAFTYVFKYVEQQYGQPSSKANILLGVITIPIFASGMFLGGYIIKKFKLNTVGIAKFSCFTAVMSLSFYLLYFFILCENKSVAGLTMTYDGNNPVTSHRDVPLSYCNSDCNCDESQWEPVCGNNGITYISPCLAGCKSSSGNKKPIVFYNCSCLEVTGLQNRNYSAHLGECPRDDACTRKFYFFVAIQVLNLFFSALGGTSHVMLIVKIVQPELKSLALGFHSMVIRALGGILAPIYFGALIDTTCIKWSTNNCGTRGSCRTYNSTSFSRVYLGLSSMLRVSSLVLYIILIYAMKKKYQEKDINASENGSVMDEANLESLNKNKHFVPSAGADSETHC

[6] = molecular target: T3, hOATP1B3 (Homo sapiens, UniProt Q9NPD5); assay: Inhibition of vincristine uptake in HEK293 cells overexpressing hOATP1B3; settings: inhibitor 15 min pre-treatment
T3 sequence (Q9NPD5 1-702): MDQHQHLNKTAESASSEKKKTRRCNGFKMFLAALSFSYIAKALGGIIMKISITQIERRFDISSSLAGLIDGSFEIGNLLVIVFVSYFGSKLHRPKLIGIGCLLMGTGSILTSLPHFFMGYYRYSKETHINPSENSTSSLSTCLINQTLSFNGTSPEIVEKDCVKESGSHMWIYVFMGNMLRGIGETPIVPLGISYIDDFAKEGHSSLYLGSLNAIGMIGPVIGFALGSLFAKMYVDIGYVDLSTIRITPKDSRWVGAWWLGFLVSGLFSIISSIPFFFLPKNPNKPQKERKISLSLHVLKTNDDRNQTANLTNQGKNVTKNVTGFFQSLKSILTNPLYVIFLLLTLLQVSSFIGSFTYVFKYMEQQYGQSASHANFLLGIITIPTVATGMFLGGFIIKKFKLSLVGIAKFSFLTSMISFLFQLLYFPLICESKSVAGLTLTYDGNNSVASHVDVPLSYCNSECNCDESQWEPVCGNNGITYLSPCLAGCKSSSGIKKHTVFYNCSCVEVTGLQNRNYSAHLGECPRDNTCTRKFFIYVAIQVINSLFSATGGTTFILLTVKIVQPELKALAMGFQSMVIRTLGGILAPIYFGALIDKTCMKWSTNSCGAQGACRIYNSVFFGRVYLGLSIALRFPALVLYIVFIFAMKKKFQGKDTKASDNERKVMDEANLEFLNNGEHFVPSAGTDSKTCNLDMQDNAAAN

[7] = molecular target: T1, mOATP1B2; assay: Inhibition of EβG uptake in HEK293 cells overexpressing mOATP1B2; assay type: cell-based
[8] = molecular target: T2, hOATP1B1; assay: Inhibition of EβG uptake in HEK293 cells overexpressing hOATP1B1; settings: inhibitor 10 μM, 15-min pre-incubation
[9] = molecular target: T3, hOATP1B3; assay: Inhibition of EβG uptake in HEK293 cells overexpressing hOATP1B3; settings: HEK293 hOATP1B3; inhibitor 10 μM, 15-min pre-incubation
[10] = system: OATP1B2; assay: Plasma level and DRG/plasma ratio of α-tocopherol in mice (biomarker of OATP1B2 function); assay type: in vivo, mouse
[11] = mOATP1B2, in presence of alpha-tocopherol

Q: With `OCCN(CCO)c1nc(N2CCCCC2)c2nc(N(CCO)CCO)nc(N3CCCCC3)c2n1` [Dipyridamole, dipyridamole] as the compound, how does the “Inhibitory potency against OATP1B-type transporters” value [1] read?
A: Its value is “moderate inhibitory potency”.

Q: And the “Protection against VIPN” value [2]?
A: Its value is “partially protected against VIPN in mice”.

Q: For `CC(=O)O[C@@]12CO[C@@H]1C[C@H](O)[C@@]1(C)C(=O)[C@H](O)C3=C(C)[C@@H](OC(=O)[C@H](O)[C@@H](NC(=O)OC(C)(C)C)c4ccccc4)C[C@@](O)([C@@H](OC(=O)c4ccccc4)[C@H]21)C3(C)C` [Docetaxel, docetaxel], which “Protection against treatment-related mechanical allodynia by OATP1B2 deficiency” value (“Protection … by OATP1B2 deficiency” for short) ([3]; DBA/1LacJ) is on record?
A: Its value is “independently of OATP1B2”.

Q: Which “Protection … by OATP1B2 deficiency” value ([3]; DBA/1LacJ) does the source give for `C=C1C[C@@H]2CC[C@@]34C[C@H]5O[C@H]6[C@@H](O3)[C@H]3O[C@H](CC[C@@H]3O[C@H]6[C@H]5O4)CC(=O)C[C@@H]3[C@@H](OC)[C@@H](C[C@H](O)CN)O[C@H]3C[C@H]3O[C@@H](CC[C@@H]1O2)C[C@@H](C)C3=C` [Eribulin, eribulin] here?
A: Its value is “independently of OATP1B2”.

Q: With `C/C(=C\c1csc(C)n1)[C@@H]1C[C@@H]2O[C@]2(C)CCC[C@H](C)[C@H](O)[C@@H](C)C(=O)C(C)(C)[C@@H](O)CC(=O)N1` [Ixabepilone, ixabepilone] as the compound, how does the “Protection … by OATP1B2 deficiency” value ([3]; DBA/1LacJ) read?
A: Its value is “independently of OATP1B2”.

Q: With `CC(=O)O[C@H]1C(=O)[C@@]2(C)[C@H]([C@H](OC(=O)c3ccccc3)[C@]3(O)C[C@H](OC(=O)[C@H](O)[C@@H](NC(=O)c4ccccc4)c4ccccc4)C(C)=C1C3(C)C)[C@]1(OC(C)=O)CO[C@@H]1C[C@@H]2O` [Paclitaxel, paclitaxel] as the compound, how does the “Protection … by OATP1B2 deficiency” value [3] read?
A: Its value is “protection against treatment-related mechanical allodynia was only observed”.

Q: Which “Vincristine uptake (% of vehicle)” value ([4]; HEK293 mOATP1B2, inhibitor 15 min pre-treatment) does the source give for `CO[C@H]1/C=C/O[C@@]2(C)Oc3c(C)c(O)c4c(O)c(c(/C=N/N5CCN(C)CC5)c(O)c4c3C2=O)NC(=O)/C(C)=C\C=C\[C@H](C)[C@H](O)[C@@H](C)[C@@H](O)[C@@H](C)[C@H](OC(C)=O)[C@@H]1C` [Rifampicin, rifampicin] here?
A: The value was 69.4167 % of vehicle and 71.9856 % of vehicle and 78.1737 % of vehicle and 74.3324 % of vehicle and 63.8503 % of vehicle and 67.3213 % of vehicle.

Q: And the “Vincristine uptake (% of vehicle)” value [5]?
A: The value was 68.5513 % of vehicle and 91.3571 % of vehicle and 64.0921 % of vehicle.

Q: And the “Vincristine uptake (% of vehicle)” value [6]?
A: The value was 68.0365 % of vehicle and 67.1426 % of vehicle and 57.6334 % of vehicle and 46.0272 % of vehicle and 55.4053 % of vehicle and 65.8991 % of vehicle.

Q: What about the “EβG uptake (% of vehicle)” value ([7]; HEK293 mOATP1B2, inhibitor 10 μM, 15-min pre-incubation) of the same compound?
A: Its value is 9.089 % of vehicle and 9.168 % of vehicle and 8.011 % of vehicle.

Q: And the “EβG uptake (% of vehicle)” value [8]?
A: The value was 26.1825 % of vehicle and 31.1005 % of vehicle and 27.1566 % of vehicle.

Q: What about the “EβG uptake (% of vehicle)” value [9] of the same compound?
A: The value was 4.339 % of vehicle and 4.237 % of vehicle and 4.051 % of vehicle.

Q: And the “Protective effect against VIPN (mechanical allodynia)” value ([3]; rifampin pretreatment 20 mg/kg, single vincristine 1 mg/kg, wild-type mice)?
A: Its value is “could be replicated with pretreatment of orally administered rifampin”.

Q: And the “Level of α-tocopherol (% of wild-type baseline), DRG/Plasma Ratio” value ([10]; WT mice treated with the inhibitor, DRG/plasma ratio, listed as Rifampin)?
A: The value was 27.9959% and 27.249% and 34.1971%.

Q: And the “Level of α-tocopherol (% of wild-type baseline), Plasma” value ([10]; WT mice treated with the inhibitor, plasma, listed as Rifampin)?
A: The value was 236.636% and 352.754% and 217.386%.

Q: What about the “Level of α-tocopherol (% of wild-type baseline), relative DRG/plasma ratio” value ([10]; WT mice, 2 hours after rifampin 20 mg/kg i.p.) of the same compound?
A: The value was 27.9959 % of wild-type baseline and 27.249 % of wild-type baseline and 34.1971 % of wild-type baseline.

Q: Which “Protection … by OATP1B2 deficiency” value ([3]; DBA/1LacJ) does the source give for `CCC1=C[C@@H]2CN(C1)Cc1c([nH]c3ccccc13)[C@@](C(=O)OC)(c1cc3c(cc1OC)N(C)[C@H]1[C@@](O)(C(=O)OC)[C@H](OC(C)=O)[C@]4(CC)C=CCN5CC[C@]31[C@@H]54)C2` [Vinorelbine, vinorelbine] here?
A: The value was “independently of OATP1B2”.

Q: What does the source list for `Cc1c(C)c2c(c(C)c1O)CC[C@@](C)(CCC[C@H](C)CCC[C@H](C)CCCC(C)C)O2` [alpha-tocopherol]?
A: Vincristine uptake (% of vehicle) [4, 11]: 51.7599% and 63.6149% and 58.7604%; EβG uptake (% of vehicle) [7, 11]: 113.612% and 99.0126% and 119.375% and 118.704% and 95.6597% and 100.791%
